{
  "source": "patent US8183409B2",
  "about": "“High yield and rapid synthesis methods for producing metallo-organic salts” (Osteologix A/S, priority 2004, dated 2012)",
  "conditions": "pH 7.5",
  "data": [
    {"smiles": "O=C([O-])/C=C\\C(=O)[O-].[Sr+2]", "note": "[Maleate, strontium maleate]", "values": [
      {"measurement": "solubility in buffered solution compared with pure water", "result": "decreased solubility"}
    ]}
  ]
}
